These results are taken from patent publication US20260053794A1, “SOMATOSTATIN RECEPTOR 2 AGONISTS AND USES THEREOF” (Exelixis, Inc., priority 2022, published 2026).

The target of the test is T1, Somatostatin Receptor 2 (SSTR2) (Homo sapiens, UniProt P30874).
T1 construct: expressed in transfected cells
Briefly: Biochemical Assay for Activation of Somatostatin Receptor 2 (SSTR2), Cisbio HTRF cAMP assay. Type of test: cell-based. The settings on record: average pEC50; HTRF cAMP assay in stably-transfected cell line expressing SSTR2; cells incubated with compounds for 1-2h. On the procedure: Biochemical Assay for Activation of Somatostatin Receptor 2 (SSTR2)
Agonistic activation of SSTRs leads to an […] production of intracellular cAMP levels. Cisbio's homogeneous time-resolved fluorescence (HTRF) cAMP assay was used to measure cAMP concentration in an high-throughput format. Increase in intracellular cAMP concentrations was measuring using a stably-transfected cell line expressing SSTR2. Test compounds were dissolved in DMSO. Cells were incubated with compounds for 1-2h, and subsequently competitive binding of cAMP produced due to the activation of SSTR2 by the test compounds was measured using the Cisbio cAMP Gs dynamic assay system (Perkin Elmer, Bedford, MA).
The average pEC50 was determined for the test compounds.
On the technique in general: TR-FRET usually uses a lanthanide donor and a delayed reading to cut background.

Each structure is given as a SMILES string.

T1 sequence (P30874 whole entry, species assumed): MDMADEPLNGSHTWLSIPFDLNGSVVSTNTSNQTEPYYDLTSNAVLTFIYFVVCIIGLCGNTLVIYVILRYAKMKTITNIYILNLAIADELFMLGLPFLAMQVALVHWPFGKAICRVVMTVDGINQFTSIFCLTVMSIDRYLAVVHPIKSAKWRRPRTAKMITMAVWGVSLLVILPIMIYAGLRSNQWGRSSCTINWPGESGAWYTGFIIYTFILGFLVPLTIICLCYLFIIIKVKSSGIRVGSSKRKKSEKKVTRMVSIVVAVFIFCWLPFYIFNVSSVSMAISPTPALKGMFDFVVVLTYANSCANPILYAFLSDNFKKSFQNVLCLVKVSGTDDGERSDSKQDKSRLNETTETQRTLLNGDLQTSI

The EC50 is the concentration needed to bring the measured effect to its halfway point. On to `CO[C@@H]1CN(c2c(-c3cc(C)cc(F)c3)cnc3[nH]c(-c4cccc(C#N)c4O)nc23)CC[C@H]1N` [Compound 54], for which the EC50 is 2510 nM.
Regarding `NC(=O)c1cccc2c1OCCCCNC1CCN(CC1)c1c(-c3cc(F)cc(F)c3)cnc3ccc-2cc13` [Compound 75], the EC50 was 2 nM.
As to `Cn1c(-c2cccc(C#N)c2O)nc2c(N3CCC(NC(=O)OC(C)(C)C)CC3)c(-c3cc(F)cc(F)c3)cnc21` [Compound 42], the EC50 is above 10000 nM.
In the case of `O=C1NCCCNC2CCN(CC2)c2c(-c3cc(F)cc(F)c3)cnc3ccc(cc23)-c2cccc1n2` [Compound 80], the EC50 was 6.31 nM.
With `NC1CCN(c2c(-c3cc(F)cc(F)c3)cnc3ccc(-c4cc(F)cc(F)c4)cc23)CC1` [Compound 145] the figure was 0.0316 nM; with `Cc1cc(F)cc(-c2cnc3ccc4cc3c2N2CCC(CC2)NC[C@@H](O)CCOc2c(C#N)cccc2-4)c1` (single isomer, unassigned) [Compound 100], 2510 nM.
For the molecule `Cc1cc(F)cc(-c2cnc3ccc(-c4cc(F)cc(C(N)=O)c4)cc3c2O[C@H]2C[C@@H](N)C2)c1` [Compound 18], the EC50 was 12.6 nM.
`Cn1c(-c2cccc(Br)c2O)nc2ncc(-c3cc(F)cc(F)c3)c(N3CCC(N)CC3)c21` [Compound 45]: the 50% effective concentration (EC50) is 398 nM.
With `N#Cc1cccc2c1OCCOCCNC1CCN(CC1)c1c(-c3cc(F)cc(F)c3)cnc3ccc-2cc13` [Compound 70] the figure was 0.794 nM; with `Cn1c(-c2cccc(Br)c2O)nc2ncc(-c3cc(F)cc(F)c3)c(N3CCC(NC(=O)OC(C)(C)C)CC3)c21` [Compound 44], above 10000 nM; with `Cc1cc(F)cc(-c2cnc3ccc(-c4cccc(C#N)c4O)cc3c2N2CCC(O)CC2)c1` [Compound 164], above 10000 nM.
Turning to `CO[C@@H]1CN(c2c(-c3cc(F)cc(F)c3)cnc3c2nc(-c2cccc(C#N)c2O)n3C)CC[C@H]1N` [Compound 23, 3-(7-((3R,4R)-4-amino-3-methoxypiperidin-1-yl)-6-(3,5-difluorophenyl)-3-methyl-3H-imidazo[4,5-b]pyridin-2-yl)-2-hydroxybenzonitrile], the EC50 is above 10000 nM.
Consider `N#Cc1cccc(-c2ccc3ncc(-c4cc(F)cc(F)c4)c(N4CCC(O)CC4)c3c2)c1NCCCN` [Compound 146], for which the EC50 was 398 nM.
With `NCc1cc(-c2cc(F)cc(F)c2)cc2c(N3CCC(N)CC3)c(-c3cc(F)cc(F)c3)cnc12` [Compound 159], the EC50 was 0.398 nM.
Take `Cc1cc(F)cc(-c2cnc3ccc(-c4cc(F)cc(C(N)=O)c4)cc3c2O[C@H]2CC[C@H](N)C2)c1` [Compound 1, 3-(4-(((1S,3S)-3-aminocyclopentyl)oxy)-3-(3-fluoro-5-methylphenyl)quinolin-6-yl)-5-fluorobenzamide]: the concentration for a half-maximal effect (EC50) was 0.316 nM.
Take `COCOc1c(C#N)cccc1-c1ccc2ncc(-c3cc(F)cc(F)c3)c(O[C@H]3CC[C@@H](NC(=O)OC(C)(C)C)C3)c2c1` [Compound 140]: the EC50 was above 10000 nM.
With `Cc1cc(F)cc(-c2cnc3ccc4cc3c2N2CCC(CC2)NCC[C@@H](N=[N+]=[N-])COc2c(C#N)cccc2-4)c1` (single isomer, unassigned) [Compound 96] the figure was 0.794 nM; with `N[C@H]1CC[C@@H](Oc2c(-c3cc(F)cc(F)c3)cnc3ccc(-c4ccc5[nH]c(=O)[nH]c5c4)cc23)C1` [Compound 11], 398 nM.
`Cn1c(-c2cc(F)cc(C(N)=O)c2)nc2c(N3CCC(N)CC3)c(-c3cc(F)cc(F)c3)cnc21` [Compound 38]: the EC50 was 2000 nM.
Consider `Cc1cc(F)cc(-c2cnc3ccc4cc3c2N2CCC(CC2)NCC[C@@H](N)COc2c(C#N)cccc2-4)c1` (single isomer, unassigned) [Compound 98], for which the EC50 was 316 nM.
Consider `Cc1cc(F)cc(-c2cnc3ccc4cc3c2N2CCC(CC2)NC[C@H](CO)CCOc2c(C#N)cccc2-4)c1` (single isomer, unassigned) [Compound 91], for which the EC50 was 6.31 nM.
As for `Cc1cc(F)cc(-c2cnc3[nH]c(-c4ccc5[nH]c(=O)[nH]c5c4)nc3c2N2CCC(N)CC2)c1` [Compound 62], the EC50 was 631 nM.
Take `CNCCCNc1c(C(=O)Nc2ccc(F)c(F)c2)cncc1-c1cc(F)cc(F)c1` [Compound 117]: the EC50 was 2000 nM.
For the molecule `CO[C@@H]1CN(c2c(-c3cc(C)cc(F)c3)cnc3[nH]c(-c4ccc5[nH]c(=O)[nH]c5c4)nc23)CC[C@H]1N` [Compound 55], the 50% effective concentration (EC50) is above 10000 nM.
As for `Cc1cc(F)cc(-c2cnc3c(nc(-c4ccc5[nH]c(=O)[nH]c5c4)n3C)c2N2CCC(N)CC2)c1` [Compound 36], the EC50 is above 10000 nM.
As for `Cc1cc(F)cc(-c2cnc3[nH]c(-c4cccc(Br)c4O)nc3c2N2CCC(N)CC2)c1` [Compound 60], the half-maximal effective concentration (EC50) was 3.16 nM.
As to `Cc1cc(C)cc(-c2cnc3c(c2N2CC[C@@H](N)C2)C(=O)N(c2cc(C)cc(C)c2)CC3)c1` [Compound 115], the half-maximal effective concentration (EC50) was 1000 nM.
Turning to `NC1CCN(c2c(-c3cc(F)cc(F)c3)cnc3sc(-c4cc(F)cc(F)c4)cc23)CC1` [Compound 134], the EC50 is 631 nM.
With `N#Cc1cccc(-c2ccc3ncc(-c4cc(F)cc(F)c4)c(N4CC5(CNC5)C4)c3c2)c1O` [Compound 137], the EC50 was above 10000 nM.
In the case of `Cc1cc(F)cc(-c2cnc3ccc4cc3c2N2CCC(CC2)NCCCCOc2c(C(N)=O)cccc2-4)c1` [Compound 74], the concentration for a half-maximal effect (EC50) was 0.251 nM.
In the case of `COc1cc(F)cc(-c2cnc3[nH]c(-c4cc(F)cc(C(N)=O)c4)nc3c2N2CCC(N)CC2)c1` [Compound 58], the EC50 is 501 nM.
For the molecule `Cc1cc(F)cc(-c2cncc(N3Cc4ccccc4C3)c2N2CCC(N)CC2)c1` [Compound 119], the EC50 is 0.0501 nM.
With `Nc1nc(Cl)ccc1C(=O)Nc1cncc(-c2ccccc2)c1N1CCC(N)CC1` [Compound 165], the EC50 was 12.6 nM.
Regarding `NC1CCN(c2c(-c3nc4cc(F)c(F)cc4[nH]3)cnc3c2-c2cc(F)ccc2CO3)CC1` [Compound 121, 1-(2-(5,6-difluoro-1H-benzo[d]imidazol-2-yl)-9-fluoro-6H-isochromeno[3,4-b]pyridin-1-yl)piperidin-4-amine], the concentration for a half-maximal effect (EC50) is 631 nM.
For the molecule `CN1CCCCNC2CCN(CC2)c2c(-c3cc(F)cc(F)c3)cnc3ccc(cc23)-c2cccc(c2)C1=O` [Compound 81, 23-(3,5-difluorophenyl)-5-methyl-5, 10-diaza-2(4, 6)-quinolina-1(1, 4)-piperidina-3(1,3)-benzenacyclodecaphan-4-one], the EC50 is 2000 nM.
Consider `Cc1cc(F)cc(-c2cnc3[nH]c(-c4cc(F)cc(C(N)=O)c4)nc3c2N2CCC(N)CC2)c1` [Compound 61], for which the 50% effective concentration (EC50) was 50.1 nM.
On to `N[C@@H]1CC[C@H](Oc2c(-c3cc(F)cc(F)c3)cnc3ccc(-c4cc(F)cc(F)c4)cc23)C1` [Compound 12, (1R,3S)-3-((3,6-bis(3,5-difluorophenyl)quinolin-4-yl)oxy) cyclopentanamine], for which the 50% effective concentration (EC50) is 15.8 nM.
Turning to `CC(C)(C)OC(=O)NC1CCN(c2c(-c3cc(F)cc(F)c3)cnc3nc(-c4cccc(Br)c4O)[nH]c23)CC1` [Compound 63], the EC50 is above 10000 nM.
Consider `Cn1c(-c2ccc3[nH]c(=O)[nH]c3c2)nc2c(N3CCC(N)CC3)c(-c3cc(F)cc(F)c3)cnc21` [Compound 39], for which the EC50 was above 10000 nM.
On to `CNCCCn1c(=O)n(-c2ccc(F)c(F)c2)c(=O)c2cncc(-c3cc(F)cc(F)c3)c21` [Compound 118], for which the EC50 is above 10000 nM.
With `COc1cc(F)cc(-c2cnc3c(nc(-c4ccc5[nH]c(=O)[nH]c5c4)n3C)c2N2CCC(N)CC2)c1` [Compound 32] the figure was above 10000 nM; with `CO[C@@H]1CN(c2c(-c3cc(C)cc(F)c3)cnc3c2nc(-c2ccc4[nH]c(=O)[nH]c4c2)n3C)CC[C@H]1N` [Compound 27], above 10000 nM.
With `N#Cc1cccc(-c2cc3c(N4CCC(N)CC4)c(-c4cc(F)cc(F)c4)cnc3o2)c1O` [Compound 131] the figure was above 10000 nM; with `Cc1cc(F)cc(-c2cnc3ccc4cc3c2N2CCC(CC2)NCC(N=[N+]=[N-])CCOc2c(C#N)cccc2-4)c1` (stereo not drawn) [Compound 94, 7-azido-23-(3-fluoro-5-methylphenyl)-4-oxa-9-aza-2(4.6)-quinolina-1(1.4)-piperidina-3(1,2)-benzenacyclononaphane-33-carbonitrile], 158 nM.
Take `O=C1NCCNC2CCN(CC2)c2c(-c3cc(F)cc(F)c3)cnc3ccc(cc23)-c2cccc1n2` [Compound 78, 23-(3,5-difluorophenyl)-4,7-diaza-2(6,4)-quinolina-1(2,6)-pyridina-3(1.4)-piperidina-cyclooctaphan-8-one]: the EC50 was 2510 nM.
As to `N#Cc1cccc(-c2ccc3ncc(-c4cc(F)cc(F)c4)c(C4=CCC(N)CC4)c3c2)c1O` (stereo not drawn) [Compound 125], the concentration giving a half-maximal response (EC50) was 5.01 nM.
For the molecule `CCOC(=O)c1cc(-c2cc(F)cc(F)c2)cc2c(N3CCC(N)CC3)c(-c3cc(F)cc(F)c3)cnc12` [Compound 147], the EC50 is 0.0398 nM.
Consider `O=C1NCCNC2CCN(CC2)c2c(-c3cc(F)cc(F)c3)cnc3ccc(cc23)-c2cccnc21` [Compound 79, 2^3-(3,5-difluorophenyl)-4,7-diaza-2(6,4)-quinolina-1(3,2)-pyridina-3(1,4)-piperidinacyclooctaphan-8-one], for which the EC50 is above 10000 nM.
With `Cc1cc(F)cc(-c2cnc3ccc4cc3c2N2CCC(CC2)NC[C@H](O)CCOc2c(C#N)cccc2-4)c1` (single isomer, unassigned) [Compound 101] the figure was 1580 nM; with `O=C1NCCCCNC2CCN(CC2)c2c(-c3cc(F)cc(F)c3)cnc3ccc(cc23)-c2cccnc21` [Compound 84], above 10000 nM.
On to `Cc1cc(F)cc(-c2cnc3ccc(-c4cc(F)cc(C(N)=O)c4)cc3c2O[C@H]2C[C@H](N)C2)c1` [Compound 19], for which the EC50 was 1 nM.
